This note sets out measurements from PubChem BioAssay AID328 (DTP/NCI, 2004).

Each structure is given as a SMILES string. Values joined by “and” are separate entries in the source; they are usually repeats but may differ in a detail not shown here. Equal values may be shown once. Toxic doses and inconclusive results are not listed.

The test relates to BDF1 mice, P388 leukemia ip, median survival T/C. The test can be described thus: NCI In Vivo Anticancer Drug Screen. Data for tumor model P388 Leukemia (intraperitoneal) in B6D2F1 (BDF1) mice. To be noted: endpoint: median survival time, higher = longer survival. The essentials:
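Antitumour effect was judged in vivo: survival in drug-treated mice, normalised to that of vehicle-dosed controls, gives the reported T/C.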

The mark [1] stands for this setting: dose: 25.0 mg/kg/injection, schedule: Q01DX009 (ip), vehicle: water.
Where [2] appears, read: dose: 25.0 mg/kg/injection, schedule: Q04DX003 (ip), vehicle: water.
[3] abbreviates: dose: 50.0 mg/kg/injection, schedule: Q01DX009 (ip), vehicle: water.
Setting [4] is: dose: 50.0 mg/kg/injection, schedule: Q04DX003 (ip), vehicle: water.
The mark [5] stands for this setting: dose: 100.0 mg/kg/injection, schedule: Q01DX009 (ip), vehicle: water.
The mark [6] stands for this setting: dose: 100.0 mg/kg/injection, schedule: Q04DX003 (ip), vehicle: water.
Setting [7] is: dose: 200.0 mg/kg/injection, schedule: Q04DX003 (ip), vehicle: water.
[8] abbreviates: dose: 400.0 mg/kg/injection, schedule: Q04DX003 (ip), vehicle: water.
Setting [9] is: dose: 12.5 mg/kg/injection, schedule: Q01DX009 (ip), vehicle: Klucel (hydroxypropylcellulose) (HPC).
Where [10] appears, read: dose: 25.0 mg/kg/injection, schedule: Q01DX009 (ip), vehicle: Klucel (hydroxypropylcellulose) (HPC).
[11] abbreviates: dose: 25.0 mg/kg/injection, schedule: Q04DX003 (ip), vehicle: Klucel (hydroxypropylcellulose) (HPC).
[12] abbreviates: dose: 50.0 mg/kg/injection, schedule: Q01DX009 (ip), vehicle: Klucel (hydroxypropylcellulose) (HPC).
The mark [13] stands for this setting: dose: 50.0 mg/kg/injection, schedule: Q04DX003 (ip), vehicle: Klucel (hydroxypropylcellulose) (HPC).
Where [14] appears, read: dose: 50.0 mg/kg/injection, schedule: Q01DX009 (ip), vehicle: saline with Tween-80.
[15] abbreviates: dose: 100.0 mg/kg/injection, schedule: Q01DX009 (ip), vehicle: saline with Tween-80.

Turning to `ClCCN(CCCl)c1cc(OCc2ccccc2)cc(OCc2ccccc2)c1`, the T/C by setting is: (dose: 6.25 mg/kg/injection, schedule: Q01DX009 (ip), vehicle: water) 91 % of control; (dose: 12.5 mg/kg/injection, schedule: Q01DX009 (ip), vehicle: water) 88 % of control; under setting [1], 86 % of control; under setting [2], 91 % of control; under setting [3], 88 % of control; under setting [4], 89 % of control. Further, the T/C is, setting by setting: under setting [5], 98 % of control; under setting [6], 121 % of control; (dose: 200.0 mg/kg/injection, schedule: Q01DX009 (ip), vehicle: water) 92 % of control and 97 % of control; under setting [7], 97 % of control; under setting [8], 89 % of control.
In the case of `NC(CSC(c1ccccc1)(c1ccccc1)c1ccc2ccccc2c1)C(=O)O` (centres undefined), the T/C runs as follows: (dose: 2.75 mg/kg/injection, schedule: Q01DX009 (ip), vehicle: saline) 173 % of control; (dose: 4.12 mg/kg/injection, schedule: Q01DX009 (ip), vehicle: saline) 227 % of control; (dose: 6.25 mg/kg/injection, schedule: Q01DX009 (ip), vehicle: saline) 250 % of control; under setting [9], 216 % of control; (dose: 12.5 mg/kg/injection, schedule: Q01DX009 (ip), vehicle: saline) 89 % of control; under setting [10], 333 % of control. The T/C was 210 % of control under setting [11]; 200 % of control (dose: 29.0 mg/kg/injection, schedule: Q04DX003 (ip), vehicle: saline); 86 % of control (dose: 45.0 mg/kg/injection, schedule: Q04DX003 (ip), vehicle: saline); 200 % of control under setting [12]; 200 % of control under setting [13]; 300 % of control (dose: 50.0 mg/kg/injection, schedule: Q04DX003 (ip), vehicle: saline). Also, the T/C (dose: 66.0 mg/kg/injection, schedule: Q04DX003 (ip), vehicle: saline) is 272 % of control; the T/C (dose: 100.0 mg/kg/injection, schedule: Q04DX003 (ip), vehicle: Klucel (hydroxypropylcellulose) (HPC)) is 300 % of control; the T/C (dose: 100.0 mg/kg/injection, schedule: Q04DX003 (ip), vehicle: saline) was 300 % of control and 154 % of control; the T/C (dose: 200.0 mg/kg/injection, schedule: Q04DX003 (ip), vehicle: saline) was 95 % of control.
For `CC(=O)N(C)C=C1C(=O)N(C)C(=O)N(C)C1=O`, the T/C is, setting by setting: under setting [14], 102 % of control; under setting [15], 111 % of control; (dose: 200.0 mg/kg/injection, schedule: Q01DX009 (ip), vehicle: saline with Tween-80) 92 % of control.
Turning to `Cc1cccc(NC(=O)CCc2ccc(N3C(N)=NC(N)=NC3(C)C)cc2)c1`, the T/C (dose: 58.0 mg/kg/injection, schedule: Q01DX009 (ip), vehicle: saline with Tween-80) was 111 % of control; the T/C (dose: 88.0 mg/kg/injection, schedule: Q01DX009 (ip), vehicle: saline with Tween-80) was 119 % of control; the T/C (dose: 132.0 mg/kg/injection, schedule: Q01DX009 (ip), vehicle: saline with Tween-80) was 119 % of control and 122 % of control.
With `CC(=O)Oc1c(Cl)c(Cl)c(C#N)c(Cl)c1C#N`, the T/C reads like this: under setting [14], 111 % of control; under setting [15], 122 % of control.
In the case of `CCCCCCCCCCCC[N+](C)(C)Cc1ccccc1`, the T/C is 90 % of control (dose: 0.43 mg/kg/injection, schedule: Q04DX003 (ip), vehicle: saline); 109 % of control (dose: 0.78 mg/kg/injection, schedule: Q01DX009 (ip), vehicle: saline); 100 % of control (dose: 0.87 mg/kg/injection, schedule: Q04DX003 (ip), vehicle: saline); 109 % of control (dose: 1.56 mg/kg/injection, schedule: Q01DX009 (ip), vehicle: saline); 100 % of control (dose: 1.75 mg/kg/injection, schedule: Q04DX003 (ip), vehicle: saline); 161 % of control (dose: 2.05 mg/kg/injection, schedule: Q01DX009 (ip), vehicle: saline). Also, the T/C (dose: 3.5 mg/kg/injection, schedule: Q04DX003 (ip), vehicle: saline) was 109 % of control.
For `CC(=O)Oc1ccc(N2C(=O)C3C(C2=O)C2c4ccccc4C3C3CCCCN32)cc1` (centres undefined) (tested in a mixture with another compound), the T/C is, setting by setting: (dose: 6.25 mg/kg/injection, schedule: Q04DX003 (ip), vehicle: water) 97 % of control; (dose: 12.5 mg/kg/injection, schedule: Q04DX003 (ip), vehicle: water) 101 % of control; under setting [2], 99 % of control; under setting [4], 101 % of control; under setting [6], 91 % of control.
With `FC(F)(F)/C([S-])=C(/[S-])C(F)(F)F.FC(F)(F)/C([S-])=C(/[S-])C(F)(F)F.FC(F)(F)/C([S-])=C(/[S-])C(F)(F)F.FC(F)(F)/C([S-])=C(/[S-])C(F)(F)F.[Co+3].[Co+3]`, the T/C runs as follows: (dose: 12.5 mg/kg/injection, schedule: Q04DX003 (ip), vehicle: other) 110 % of control; (dose: 25.0 mg/kg/injection, schedule: Q04DX003 (ip), vehicle: other) 120 % of control.
`COc1cc(NS(C)(=O)=O)ccc1Nc1c2ccc(Cl)cc2nc2c(OC)cccc12`: the T/C is 106 % of control (dose: 0.8 mg/kg/injection, schedule: Q01DX005 (iv), vehicle: water); 105 % of control (dose: 0.8 mg/kg/injection, schedule: Q04DX003 (iv), vehicle: water); 99 % of control (dose: 1.6 mg/kg/injection, schedule: Q01DX005 (iv), vehicle: water); 100 % of control (dose: 1.6 mg/kg/injection, schedule: Q04DX003 (iv), vehicle: water); 114 % of control (dose: 3.3 mg/kg/injection, schedule: Q01DX005 (iv), vehicle: water); 109 % of control (dose: 3.3 mg/kg/injection, schedule: Q04DX003 (iv), vehicle: water). For the same compound, the T/C runs as follows: (dose: 6.5 mg/kg/injection, schedule: Q04DX003 (iv), vehicle: water) 124 % of control; (dose: 12.5 mg/kg/injection, schedule: Q01DX009 (ip), vehicle: saline with Tween-80) 95 % of control; (dose: 26.0 mg/kg/injection, schedule: Q04DX003 (iv), vehicle: water) 250 % of control.
Take `C[N+](C)(C)c1ccc(/C=N\NC(=O)c2ccccc2)cc1`: the T/C was 105 % of control under setting [9]; 100 % of control (dose: 12.5 mg/kg/injection, schedule: Q04DX003 (ip), vehicle: Klucel (hydroxypropylcellulose) (HPC)); 105 % of control under setting [10]; 100 % of control under setting [11]; 105 % of control under setting [12]; 95 % of control under setting [13].
On to `CC(CNC(=O)CCOS(C)(=O)=O)NC(=O)CCOS(C)(=O)=O` (centres undefined), for which the T/C is 213 % of control (dose: 264.0 mg/kg/injection, schedule: Q04DX003 (ip), vehicle: saline with Tween-80); 183 % of control (dose: 267.0 mg/kg/injection, schedule: Q04DX003 (ip), vehicle: saline with Tween-80); 208 % of control and 209 % of control (dose: 400.0 mg/kg/injection, schedule: Q04DX003 (ip), vehicle: saline with Tween-80); 212 % of control (dose: 500.0 mg/kg/injection, schedule: Q04DX003 (ip), vehicle: saline with Tween-80); 109 % of control (dose: 600.0 mg/kg/injection, schedule: Q04DX003 (ip), vehicle: saline with Tween-80).
`CN=C1N[N+]2=C(C)CSCC2(C)S1` (centres undefined): the T/C was 100 % of control (dose: 50.0 mg/kg/injection, schedule: Q01DX009 (ip), vehicle: saline); 100 % of control (dose: 100.0 mg/kg/injection, schedule: Q01DX009 (ip), vehicle: saline); 97 % of control (dose: 200.0 mg/kg/injection, schedule: Q01DX009 (ip), vehicle: saline).
With `CSCC(C(N)=O)c1cc(Cl)ccc1Cl` (centres undefined), the T/C is, setting by setting: under setting [1], 97 % of control; under setting [3], 103 % of control; under setting [15], 100 % of control; under setting [5], 101 % of control; under setting [6], 95 % of control; under setting [7], 100 % of control. Under setting [8], the T/C is 100 % of control.
